Test results as given in PMC10630888, “Nuclear ERK1/2 signaling potentiation enhances neuroprotection and cognition via Importinα1/KPNA2” (EMBO Molecular Medicine, 2023).
“And” between values parts separate entries of the source, which are not always exact repeats. Identical values can stand only once.

Key:
[1] = tested on: p-ERK1/2 in CTIP2+ neurons; assay: p-ERK1/2 in CTIP2+ iPSC-derived HD MSNs; assay type: cell-based, human; settings: for p-ERK1/2 in CTIP2+ neurons (Fig 5 panel f): individual replicates
Experimental: The human induced pluripotent stem cell line CS09iHD109‐n1 (herein referred to as Q109N1) was originally generated from a human fibroblast line ND39258 (RRID:CVCL_ZC78) with an expanded HTT allele initially containing 109 pure CAG trinucleotides, and the isogenic control lines used were derived by CRISPR gene‐edit to reduce the CAG repeat length to 20 repeats (Mattis et al, [2015]). IPSCS were cultured on hESC‐qualified Matrigel (Corning) in E8‐Flex medium (Thermo Fisher) and passaged with RelesR (Stem Cell Technologies) according to the manufacturer's instructions. For neural differentiation iPSCS were grown to 70% confluency and then treated with 10 μM Y‐27632 (Tocris) for 1 h before harvesting by dissociation to a single cell suspension using accutase (Sigma). IPSCs were replated onto fresh Matrigel‐coated plates at a split ratio of 1:2, in E8‐Flex medium containing 10 μM Y‐27632. After overnight culture, IPSCs at 80–90% confluency were washed with PBS pH 7.4 (Gibco) and then switched to neural induction medium (Advanced DMEM/F12 (1:1) supplemented with 2 mM GlutamaxTM (Gibco), 2% Neurobrew without vitamin A (Miltenyi), 10 μM SB431542, 1 μM LDN 193189 (both Stem Cell Technologies), and 1.5 μM IWR1 (Tocris)). Medium was changed daily until day 8, when cells were passaged 1:2 by cell dissociation with Accutase for 5 min at 37°C and replated on Matrigel® coated plates in LIA medium containing (Advanced DMEM/F12 (1:1) supplemented with 2 mM GlutamaxTM, 2% Neurobrew without vitamin A, 0.2 μM LDN 193189, 1.5 μM IWR1, and 20 ng/ml Activin A (Peprotech)). At day 16, cells were plated for neuronal differentiation according to (Telezhkin et al, [2016]). […]
Images were acquired using a confocal microscope (Zeiss LSM710) under a 20× objective and analyzed with ImageJ software.

cleaved caspase-3 = assay: Cleaved caspase-3 in SN, MPTP model; assay type: in vivo, mouse
Description: In ex‐vivo and in‐vivo immunofluorescence experiments, the number of p‐S6 or p‐AcH3 immunoreactive neurons among NeuN‐positive neurons was counted in 2–3 consecutive striatal sections per mouse in four fields per section. Caspase 3‐positive cells were quantified among NeuN‐positive neurons in each slide and expressed as percentage (ratio between caspase‐3‐positive cells and total NeuN‐positive neurons) for each field acquired through the slide. The number of cells showing mutant Huntingtin inclusions were expressed as a percentage of mutant Huntingtin‐positive cells among DAPI‐positive cells.
1‐methyl‐4‐phenyl‐1,2,3,6‐tetrahydropyridine‐hydrochloride (MPTP‐HCl, Sigma, Italy) was dissolved in saline and administered i.p. once daily at a dose of 20 mg/kg for 4 days. RB5 (20 mg/kg i.p.) was injected daily 30 min before MPTP.

With “GRKKRRQRRRPPQGGGGGEPRRTEGVGPGVPGEVEMVKGQPFDV [RB5, six D-amino acids, acetylated N-terminus]” the “p-ERK1/2 in CTIP2+ neurons (Fig 5 panel f)” value ([1]; CTR iPSC-derived MSNs) was 40.5874 and 43.5065 and 59.0476 and 55.7538 and 63.8384 and 58.6194, the “p-ERK1/2 in CTIP2+ neurons” value ([1]; HD and isogenic control iPSC-derived MSNs, 50 μM, 30 min) was “induced ERK activation” and the “p-ERK1/2 in CTIP2+ neurons (Fig 5 panel f)” value ([1]; HD iPSC-derived MSNs) was 50.2062 and 59.3301 and 53.5036 and 55.8187 and 47.3002 and 65.1771. For the same sequence, the “Apoptotic cell death (cleaved caspase-3-positive cells)” value (cleaved caspase-3; MPTP 20 mg/kg i.p. and RB5 20 mg/kg i.p. for 4 days) was “counteracted apoptotic cell death” and the “cleaved caspase-3 in SN (Fig 5 panel h)” value (cleaved caspase-3; MPTP model, individual animals) was 15.9941 and 14.3542 and 22.1236 and 12.1639 and 12.097 and 11.2152 and 20.664 and 29.614 and 13.0618 and 19.582 and 19.4193 and 16.215 and 16.8899 and 24.4755.
